Legend:
[1] = In vitro inhibition of linoleic acid lipid peroxidation (AAPH); details: 100 μM; anti-lipid peroxidation
Text: In the present study, the aim was to evaluate the anti-lipid peroxidation activities of the synthesized compounds 5a–i, 6a–i, 9a–i, and 11 and compare their efficacy to that of Trolox, a well-known antioxidant. Using the water-soluble compound 2,2′-azobis(2-amidinopropane) hydrochloride (AAPH), peroxyl radicals are generated through spontaneous thermal decomposition in vitro. This experimental setup imitated the lipid peroxidation processes occurring in cells due to radical activity allowing the investigation of the effectiveness of the tested compounds under conditions resembling cellular oxidative stress.
An in vitro assay was performed following previously established protocols. The compound 2,2′-Azobis(2-methylpropionamidine) dihydrochloride (AAPH) was used as a controlled source of thermally generated alkylperoxy free radicals. The formation of conjugated diene hydroperoxides through the oxidation of sodium linoleate in an aqueous dispersion at 37 °C was measured by monitoring absorbance at 234 nm. The results were compared with the reference compound, Trolox (93%) (Table 6).

[2] = target: T1, soybean lipoxygenase isoenzyme-1 (SLOX-1) (Glycine max, UniProt P08170); assay: In vitro inhibition of soybean lipoxygenase; format: biochemical; details: pH 9.0
T1 construct: purchased Merck and Sigma-Aldrich
T1 sequence (P08170 1-839): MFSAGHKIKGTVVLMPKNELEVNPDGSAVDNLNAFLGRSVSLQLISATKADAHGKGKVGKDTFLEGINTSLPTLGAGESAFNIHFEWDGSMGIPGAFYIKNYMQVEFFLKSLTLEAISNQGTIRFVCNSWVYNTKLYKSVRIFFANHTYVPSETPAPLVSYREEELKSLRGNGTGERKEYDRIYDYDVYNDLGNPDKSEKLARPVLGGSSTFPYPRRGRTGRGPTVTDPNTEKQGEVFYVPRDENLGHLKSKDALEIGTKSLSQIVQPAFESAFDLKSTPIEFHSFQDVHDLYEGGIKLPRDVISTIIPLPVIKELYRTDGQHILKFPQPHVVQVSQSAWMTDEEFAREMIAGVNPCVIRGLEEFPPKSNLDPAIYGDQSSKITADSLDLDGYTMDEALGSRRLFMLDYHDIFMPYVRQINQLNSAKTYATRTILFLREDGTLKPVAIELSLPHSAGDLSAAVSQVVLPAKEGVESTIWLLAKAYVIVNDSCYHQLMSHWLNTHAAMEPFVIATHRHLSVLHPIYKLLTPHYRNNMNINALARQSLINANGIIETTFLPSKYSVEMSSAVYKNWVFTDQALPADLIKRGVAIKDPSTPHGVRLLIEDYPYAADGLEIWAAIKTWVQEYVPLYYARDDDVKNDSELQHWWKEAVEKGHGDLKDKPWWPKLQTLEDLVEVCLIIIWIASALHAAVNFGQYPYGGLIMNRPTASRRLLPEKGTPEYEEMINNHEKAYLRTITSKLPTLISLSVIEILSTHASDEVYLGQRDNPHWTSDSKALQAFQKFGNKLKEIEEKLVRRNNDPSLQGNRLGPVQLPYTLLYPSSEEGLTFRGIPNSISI
Protocol: In vitro anti-LOX activities were evaluated using soybean lipoxygenase isoenzyme-1 (SLOX-1), a commonly used model for mammalian LOXs.
An in vitro study was conducted following a previously reported method. The tested compounds were dissolved in DMSO (100 µM) and incubated at room temperature with 0.1 mL of sodium linoleate as the substrate and 0.2 mL of soybean lipoxygenase solution in Tris-HCl buffer (pH 9.0).

[3] = target: T2, COX-1 (Homo sapiens, UniProt P23219); assay: In vitro inhibition of COX-1; format: biochemical
T2 construct: purchased Merck and Sigma-Aldrich
T2 sequence (P23219 24-599): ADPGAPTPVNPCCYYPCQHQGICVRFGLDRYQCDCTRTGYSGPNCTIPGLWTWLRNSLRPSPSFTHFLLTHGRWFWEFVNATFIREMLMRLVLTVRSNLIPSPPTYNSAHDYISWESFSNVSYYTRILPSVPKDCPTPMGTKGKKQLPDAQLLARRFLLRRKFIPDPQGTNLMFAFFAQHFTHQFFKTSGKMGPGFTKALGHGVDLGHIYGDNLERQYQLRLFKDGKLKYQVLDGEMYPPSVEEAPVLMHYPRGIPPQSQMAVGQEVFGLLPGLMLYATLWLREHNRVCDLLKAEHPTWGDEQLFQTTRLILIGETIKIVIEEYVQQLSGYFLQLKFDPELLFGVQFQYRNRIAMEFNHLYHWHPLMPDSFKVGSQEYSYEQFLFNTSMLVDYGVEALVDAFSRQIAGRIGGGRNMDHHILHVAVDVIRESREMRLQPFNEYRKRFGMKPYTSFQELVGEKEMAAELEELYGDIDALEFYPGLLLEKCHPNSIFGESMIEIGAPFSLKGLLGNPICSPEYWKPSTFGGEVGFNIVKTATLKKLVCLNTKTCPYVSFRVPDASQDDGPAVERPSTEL
Text: Enzyme inactivation can occur due to the accumulation of hydroperoxides formed from arachidonic acid or other fatty acid substrates. In order to prevent this in the in vitro experiment used for testing COX inhibition activity of the new molecules, a co-substrate like N,N,N′,N′-tetramethyl-p-phenylenediamine (TMPD) is included, as it undergoes co-oxidation by PGG2. The oxidized TMPD has a maximum absorbance at 590 nm. COX enzymes also depend on heme (Fe^3+-protoporphyrin IX) as a cofactor, which can dissociate during purification. To ensure maximum enzyme activity, heme is added to the reaction mixture during the in vitro assay for ovine COX-2 inhibition and COX-1 inhibition.
Cyclooxygenase (COX) activity was measured using arachidonic acid (AA) as the substrate and N,N,N′,N′-tetramethylphenylenediamine (TMPD) as the co-substrate following the reported method. […] The substrate oxidation was monitored at room temperature by recording the increase in absorbance at 590 nm. Absorbance due to the spontaneous oxidation of TMPD was subtracted from the initial oxidation rate observed in the presence of AA. The inhibitory activity of the test compounds at a concentration of 100 μM was evaluated after a 6-min pre-incubation with the enzyme in the presence of heme and TMPD.

[4] = target: T3, bovine serum albumin (Bos taurus, UniProt P02769); assay: In vitro inhibition of albumin denaturation; details: heat denaturation, 60 °C 10 min
T3 construct: bovine serum albumin solution (fraction V); purchased Merck and Sigma-Aldrich; host or cells: bovine serum (fraction V)
T3 sequence (P02769 25-607): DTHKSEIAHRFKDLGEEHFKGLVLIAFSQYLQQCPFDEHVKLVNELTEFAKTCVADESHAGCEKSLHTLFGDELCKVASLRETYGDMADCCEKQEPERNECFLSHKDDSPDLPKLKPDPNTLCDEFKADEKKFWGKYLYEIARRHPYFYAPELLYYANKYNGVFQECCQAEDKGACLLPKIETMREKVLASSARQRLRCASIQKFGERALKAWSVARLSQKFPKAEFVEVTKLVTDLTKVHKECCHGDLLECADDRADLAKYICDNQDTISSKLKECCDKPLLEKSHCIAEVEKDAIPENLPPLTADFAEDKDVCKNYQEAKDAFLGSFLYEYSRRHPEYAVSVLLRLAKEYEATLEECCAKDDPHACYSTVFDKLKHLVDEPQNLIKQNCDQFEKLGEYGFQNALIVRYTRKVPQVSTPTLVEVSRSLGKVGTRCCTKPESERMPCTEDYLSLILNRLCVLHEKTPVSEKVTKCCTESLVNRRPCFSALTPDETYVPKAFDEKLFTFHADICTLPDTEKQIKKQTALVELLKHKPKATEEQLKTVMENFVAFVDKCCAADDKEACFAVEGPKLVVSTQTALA
Protocol: The ability of a compound to inhibit the thermal denaturation of albumin is considered an indicator of anti-inflammatory activity. Heat exposure simulates conditions of cellular stress or inflammation, during which protein and tissue damage occur. Certain substances can protect proteins from denaturation upon heating by stabilizing their structure and preventing aggregation and precipitation.
Inhibition of albumin denaturation was measured following the reported method. In a test tube, 1 mL of bovine serum albumin solution (fraction V, 1% w/v in phosphate buffer, pH 7.4) and 100 μL of the test compound solution were added sequentially. The mixture was incubated at 37 °C for 15 min, followed by heating at 60 °C for 10 min. After cooling to room temperature, the absorbance was measured at 660 nm. DMSO was used as the blank, and the results were compared to acetylsalicylic acid, which served as the reference compound (Table 6).

[5] = system: HeLa cells; assay: MTT viability assay; format: cell-based; details: Homo sapiens, 48 h
Protocol: (§1) HeLa, MCF-7, U251, U87, MDA-MB-435, and MDA-MB-231 cancer cell lines were maintained in incubators at 37 °C with 5% CO2 in DMEM medium supplemented with 10% (v/v) fetal bovine serum (FBS) and antibiotics/antimycotics. All cell lines used in this study originate from the Laboratory of Biochemistry, Department of Chemistry, Aristotle University of Thessaloniki. They are low-passage, mycoplasma-free cancer cell lines that have been extensively used over the past 25 years in numerous studies across various fields of cancer research, including drug cytotoxicity testing.
(§2) All cell lines tested were seeded in 96-well plates at a concentration of 6 × 10^3 cells per well, except HeLa, which were seeded at 3 × 10^3 cells per well. The day after, cells were exposed to increasing concentrations of the compounds for 48 h. Cell viability was determined using the 3-(4,5-dimethylthiazol-2-yl)-2,5-diphenyltetrazolium bromide (MTT) assay, a colorimetric assessment of cellular metabolic activity as described previously. Absorbance values from treated samples were normalized to those of untreated controls, which were assigned to a 100% viability value.

[6] = system: MCF-7 cells; assay: MTT viability assay; format: cell-based; details: Homo sapiens, MCF7, 48 h
Protocol: as §1, §2

[7] = target: T4, ovine COX-2 (Ovis aries, UniProt P79208); assay: In vitro inhibition of ovine cyclooxygenase-2
T4 sequence (P79208 17-603): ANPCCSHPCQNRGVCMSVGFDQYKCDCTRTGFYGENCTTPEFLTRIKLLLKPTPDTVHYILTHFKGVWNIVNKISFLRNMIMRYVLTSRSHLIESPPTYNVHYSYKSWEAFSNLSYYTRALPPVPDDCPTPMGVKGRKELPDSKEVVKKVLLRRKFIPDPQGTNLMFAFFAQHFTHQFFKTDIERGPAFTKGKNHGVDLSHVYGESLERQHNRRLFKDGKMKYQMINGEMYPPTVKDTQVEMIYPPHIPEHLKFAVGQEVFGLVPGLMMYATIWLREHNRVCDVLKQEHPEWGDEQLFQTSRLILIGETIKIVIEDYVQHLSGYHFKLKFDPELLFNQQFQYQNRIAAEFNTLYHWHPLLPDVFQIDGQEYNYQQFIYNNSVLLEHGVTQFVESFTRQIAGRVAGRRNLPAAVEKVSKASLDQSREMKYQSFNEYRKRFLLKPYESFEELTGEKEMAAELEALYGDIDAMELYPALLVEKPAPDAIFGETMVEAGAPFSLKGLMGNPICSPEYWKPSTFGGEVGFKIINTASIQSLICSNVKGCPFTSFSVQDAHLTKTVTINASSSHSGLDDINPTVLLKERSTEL

Compound: O=C(OCc1c(-c2ccccc2)no[n+]1[O-])/C(=C/c1cccs1)c1ccccc1 [Compound 9i, (E)-4-Phenyl-3-(((2-phenyl-3-(thiophen-2-yl)acryloyl)oxy)methyl)-1,2,5-oxadiazole 2-oxide]
- AAPH Inh. at 100 μΜ [1]: no
- LOX Inh. IC50 [2]: no
- inhibition at 100 µM [3]: 49%
- Albumin (inhibition of albumin denaturation) [4]: no
- EC50 [5]: 56 µM
- EC50 [6]: > 100 µM
- IC50 [7]: 70 µM

Source: publication PMC12693419, “Design, Synthesis, Biological Evaluation, and In Silico Studies of Novel Multitarget Cinnamic Acid Hybrids” (Molecules, 2025)
